According to patent US20260015350A1, “AZAQUINAZOLINE PAN-KRAS INHIBITORS” (Mirati Therapeutics, Inc., priority 2022, published 2026):

Tests used:
[1] = tested on: KRas-mediated phosphorylation of ERK in AsPC-1 cells; assay: Inhibition of KRas-mediated phosphorylation of ERK (Cisbio HTRF pERK), AsPC-1 cells; type: cell-based; details: Homo sapiens, ASPC1, AsPC-1 cells; HTRF pERK
Summary of the method: (§1)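 Cells were seeded at 6,000 per well and treated for 3 hrs with compound in a 10-dose, 3-fold series from 10 uM (0.8% final DMSO), with 0.2 uM Trametinib as Min control. Lysates made at 4° C over 40 mins were incubated 2 hrs at room temperature with d2- and Cryptate-labelled antibodies, then read by HTRF.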

KRas^G12C = target: T1, KRas^G12C (Homo sapiens, UniProt P01116, G12C); assay: KRas binding assay (TR-FRET tracer displacement), KRas G12C; details: for IC50: TR-FRET tracer displacement, KRas G12C
T1 construct: Biotinylated KRas (corresponding to amino acids 1-169, produced at Accelegan Inc.); biotin (biotinylated); purchased Accelegan Inc

KRas^G12A = target: T2, KRas^G12A (Homo sapiens, UniProt P01116, G12A); assay: KRas binding assay (TR-FRET tracer displacement), KRas G12A; details: for IC50: TR-FRET tracer displacement, KRas G12A
T2 construct: Biotinylated KRas (corresponding to amino acids 1-169, produced at Accelegan Inc.); biotin (biotinylated); purchased Accelegan Inc

[2] = tested on: KRas-mediated phosphorylation of ERK in H460 cells; assay: Inhibition of KRas-mediated phosphorylation of ERK (Cisbio HTRF pERK), H460 cells; type: cell-based; details: Homo sapiens; for inhibition at 0.1 µM: NCI-H460, 3 h, single point, 100 nM compound, 3 hrs; for IC50: NCI-H460, HTRF pERK
Summary of the method: as §1

[3] = tested on: KRas-mediated phosphorylation of ERK in H727 cells; assay: Inhibition of KRas-mediated phosphorylation of ERK (Cisbio HTRF pERK), H727 cells; type: cell-based; details: Homo sapiens, NCI-H727, H727 cells; HTRF pERK
Summary of the method: as §1

KRas^Q61H = target: T3, KRas^Q61H (Homo sapiens, UniProt P01116, Q61H); assay: KRas binding assay (TR-FRET tracer displacement), KRas Q61H; details: for IC50: TR-FRET tracer displacement, KRas Q61H
T3 construct: Biotinylated KRas (corresponding to amino acids 1-169, produced at Accelegan Inc.); biotin (biotinylated); purchased Accelegan Inc

[4] = tested on: KRas-mediated phosphorylation of ERK in H358 cells; assay: Inhibition of KRas-mediated phosphorylation of ERK (Cisbio HTRF pERK), H358 cells; type: cell-based; details: Homo sapiens; for inhibition at 0.1 µM: NCI-H358, 3 h, single point, 100 nM compound, 3 hrs; for IC50: NCI-H358, HTRF pERK
Summary of the method: as §1

[5] = tested on: KRas-mediated phosphorylation of ERK in HCT116 cells; assay: Inhibition of KRas-mediated phosphorylation of ERK (Cisbio HTRF pERK), HCT116 cells; type: cell-based; details: Homo sapiens; for inhibition at 0.1 µM: HCT-116, 3 h, single point, 100 nM compound, 3 hrs; for IC50: HCT-116, HTRF pERK
Summary of the method: (§2)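 6,000 cells/well; cpd 10 uM top, 3-fold x10, 0.8% DMSO final; 3 hr incubation; Min ctrl Trametinib 0.2 uM; lysis 40 min 4° C shaking; d2 + Cryptate Ab mix, 2 hr RT; HTRF read.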

KRas^WT = target: T4, KRas^WT (Homo sapiens, UniProt P01116); assay: KRas binding assay (TR-FRET tracer displacement), KRas WT; details: for IC50: TR-FRET tracer displacement, KRas WT
T4 construct: Biotinylated KRas (corresponding to amino acids 1-169, produced at Accelegan Inc.); biotin (biotinylated); purchased Accelegan Inc

[6] = tested on: KRas-mediated phosphorylation of ERK in PSN1 cells; assay: Inhibition of KRas-mediated phosphorylation of ERK (Cisbio HTRF pERK), PSN1 cells; type: cell-based; details: Homo sapiens
Summary of the method: (§3)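 Day 1 seeding: 6,000 cells per well, RPMI/10% FBS, left overnight at 37° C. with 5% CO2. Plates then stood covered for 4 h at room temperature prior to HTRF detection of pERK.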

KRas^G12S = target: T5, KRas^G12S (Homo sapiens, UniProt P01116, G12S); assay: KRas binding assay (TR-FRET tracer displacement), KRas G12S; details: for IC50: TR-FRET tracer displacement, KRas G12S
T5 construct: Biotinylated KRas (corresponding to amino acids 1-169, produced at Accelegan Inc.); biotin (biotinylated); purchased Accelegan Inc

KRas^G13D = target: T6, KRas^G13D (Homo sapiens, UniProt P01116, G13D); assay: KRas binding assay (TR-FRET tracer displacement), KRas G13D; details: for IC50: TR-FRET tracer displacement, KRas G13D
T6 construct: Biotinylated KRas (corresponding to amino acids 1-169, produced at Accelegan Inc.); biotin (biotinylated); purchased Accelegan Inc

[7] = tested on: KRas-mediated phosphorylation of ERK in A549 cells; assay: Inhibition of KRas-mediated phosphorylation of ERK (Cisbio HTRF pERK), A549 cells; type: cell-based; details: Homo sapiens; for inhibition at 0.1 µM: A549, 3 h, single point, 100 nM compound, 3 hrs; for IC50: HTRF pERK
Summary of the method: as §2

KRas^G12D = target: T7, KRas^G12D (Homo sapiens, UniProt P01116, G12D); assay: KRas binding assay (TR-FRET tracer displacement), KRas G12D
T7 construct: Biotinylated KRas (corresponding to amino acids 1-169, produced at Accelegan Inc.); biotin (biotinylated); purchased Accelegan Inc

KRas^G12R = target: T8, KRas^G12R (Homo sapiens, UniProt P01116, G12R); assay: KRas binding assay (TR-FRET tracer displacement), KRas G12R
T8 construct: Biotinylated KRas (corresponding to amino acids 1-169, produced at Accelegan Inc.); biotin (biotinylated); purchased Accelegan Inc

[8] = tested on: KRas-mediated phosphorylation of ERK in MKN1 cells; assay: Inhibition of KRas-mediated phosphorylation of ERK (Cisbio HTRF pERK), MKN1 cells; type: cell-based; details: Homo sapiens, MKN-1
Summary of the method: as §3

KRas^G12V = target: T9, KRas^G12V (Homo sapiens, UniProt P01116, G12V); assay: KRas binding assay (TR-FRET tracer displacement), KRas G12V
T9 construct: Biotinylated KRas (corresponding to amino acids 1-169, produced at Accelegan Inc.); biotin (biotinylated); purchased Accelegan Inc

[9] = single point, 10 nM compound, TR-FRET

T2 sequence (P01116 1-169 isoform P01116-2 G12A): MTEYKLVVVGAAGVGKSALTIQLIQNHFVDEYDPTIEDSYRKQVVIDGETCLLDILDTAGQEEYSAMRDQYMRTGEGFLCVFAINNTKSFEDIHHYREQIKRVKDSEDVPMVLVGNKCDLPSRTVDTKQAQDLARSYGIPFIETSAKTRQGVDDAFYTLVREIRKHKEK
T8 sequence (P01116 1-169 isoform P01116-2 G12R): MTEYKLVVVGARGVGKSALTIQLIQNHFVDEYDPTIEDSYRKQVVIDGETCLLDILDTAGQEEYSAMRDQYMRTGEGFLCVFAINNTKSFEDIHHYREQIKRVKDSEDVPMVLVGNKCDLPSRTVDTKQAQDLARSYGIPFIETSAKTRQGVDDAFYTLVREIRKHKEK
T9 sequence (P01116 1-169 isoform P01116-2 G12V): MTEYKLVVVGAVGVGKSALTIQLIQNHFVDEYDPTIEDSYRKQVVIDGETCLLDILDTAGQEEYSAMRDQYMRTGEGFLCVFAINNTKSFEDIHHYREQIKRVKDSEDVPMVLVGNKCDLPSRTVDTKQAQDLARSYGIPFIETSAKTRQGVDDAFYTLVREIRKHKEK
T4 sequence (P01116 1-169 isoform P01116-2): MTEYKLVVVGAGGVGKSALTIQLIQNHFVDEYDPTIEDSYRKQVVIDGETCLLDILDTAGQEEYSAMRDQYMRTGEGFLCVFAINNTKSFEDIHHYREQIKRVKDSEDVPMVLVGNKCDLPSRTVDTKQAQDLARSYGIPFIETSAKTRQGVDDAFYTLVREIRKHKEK
T5 sequence (P01116 1-169 isoform P01116-2 G12S): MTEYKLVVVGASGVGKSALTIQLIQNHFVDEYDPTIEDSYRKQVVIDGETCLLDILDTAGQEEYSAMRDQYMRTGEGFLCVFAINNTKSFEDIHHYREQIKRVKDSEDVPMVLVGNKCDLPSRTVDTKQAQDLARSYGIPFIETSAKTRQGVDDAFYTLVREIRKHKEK
T7 sequence (P01116 1-169 isoform P01116-2 G12D): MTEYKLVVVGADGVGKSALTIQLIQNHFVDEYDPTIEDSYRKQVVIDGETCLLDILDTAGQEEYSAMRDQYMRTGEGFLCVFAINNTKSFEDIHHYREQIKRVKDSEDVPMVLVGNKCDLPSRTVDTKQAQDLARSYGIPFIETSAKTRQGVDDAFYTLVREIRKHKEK
T6 sequence (P01116 1-169 isoform P01116-2 G13D): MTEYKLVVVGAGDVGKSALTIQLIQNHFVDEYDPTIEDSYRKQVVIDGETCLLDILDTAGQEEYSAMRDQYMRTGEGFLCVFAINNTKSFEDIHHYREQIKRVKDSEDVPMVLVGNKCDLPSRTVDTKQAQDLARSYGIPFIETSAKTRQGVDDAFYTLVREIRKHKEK
T1 sequence (P01116 1-169 isoform P01116-2 G12C): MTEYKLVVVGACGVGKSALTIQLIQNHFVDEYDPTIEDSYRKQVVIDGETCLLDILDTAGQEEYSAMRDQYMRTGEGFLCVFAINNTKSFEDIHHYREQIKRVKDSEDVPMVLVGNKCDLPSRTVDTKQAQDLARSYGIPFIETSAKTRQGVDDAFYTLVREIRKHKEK
T3 sequence (P01116 1-169 isoform P01116-2 Q61H): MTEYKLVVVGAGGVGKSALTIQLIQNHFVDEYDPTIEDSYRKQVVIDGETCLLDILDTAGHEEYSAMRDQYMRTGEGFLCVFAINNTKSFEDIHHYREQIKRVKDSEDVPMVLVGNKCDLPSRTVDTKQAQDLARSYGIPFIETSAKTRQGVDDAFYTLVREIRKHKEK

| IC50 [1] [nM] | IC50 (KRas^G12C) [nM] | IC50 (KRas^G12A) [nM] | IC50 [2] [nM] | IC50 [3] [nM] | IC50 (KRas^Q61H) [nM] | IC50 [4] [nM] | IC50 [5] [nM] | IC50 (KRas^WT) [nM] | IC50 [6] [nM] | IC50 (KRas^G12S) [nM] | IC50 (KRas^G13D) [nM] | IC50 [7] [nM] | IC50 (KRas^G12D) [nM] | IC50 (KRas^G12R) [nM] | IC50 [8] [nM] | IC50 (KRas^G12V) [nM] | SMILES | inhibition at 0.1 µM [2] [%] | inhibition at 0.1 µM [4] [%] | inhibition at 0.1 µM [5] [%] | other results |
| --- | --- | --- | --- | --- | --- | --- | --- | --- | --- | --- | --- | --- | --- | --- | --- | --- | --- | --- | --- | --- | --- |
| 434 | < 2 | < 2 | 184 | 275 | < 2 | 38 | 397 | < 2 | > 10000 | < 2 | < 2 | 708 | 3 | < 2 | 22 | < 2 | CCc1cccc2cc3[nH]ncc3c(-c3ncc4c(N5CCCC6(C5)NC(=O)NC6=O)nc(OC[C@@]56CCCN5C[C@H](F)C6)nc4c3F)c12 (stereo partly drawn) [Example 768, 7-(7-(5-ethyl-1H-benzo[f]indazol-4-yl)-8-fluoro-2-(((2R,7aS)-2-fluorohexahydro-1H-pyrrolizin-7a-yl)methoxy)pyrido[4,3-d]pyrimidin-4-yl)-1,3,7-triazaspiro[4.5]decane-2,4-dione] | 23 | 59 | 8 | inhibition at 0.1 µM [7]: 30% |
| 510 | < 2 | < 2 | 661 | 567 | < 2 | 88 | 1240 | < 2 | > 10000 | < 2 | < 2 | 2190 | < 2 | < 2 | 226 | < 2 | CCc1cccc2cc3[nH]ncc3c(-c3ncc4c(N5CCCC6(CNC(=O)N6)C5)nc(OC[C@@]56CCCN5C[C@H](F)C6)nc4c3F)c12 (stereo partly drawn) [Example 769, 7-(7-(5-ethyl-1H-benzo[f]indazol-4-yl)-8-fluoro-2-(((2R,7aS)-2-fluorohexahydro-1H-pyrrolizin-7a-yl)methoxy)pyrido[4,3-d]pyrimidin-4-yl)-1,3,7-triazaspiro[4.5]decan-2-one] | – | – | – | – |
| 444 | 6 | 12 | 1720 | 654 | 21 | 258 | 3440 | 15 | > 10000 | 6 | 25 | 3330 | < 2 | 7 | 5 | 3 | CCc1cccc2cc3[nH]ncc3c(-c3ncc4c(N5CCCn6nc(C(=O)N(C)C)cc6C5)nc(OC[C@@]56CCCN5C[C@H](F)C6)nc4c3F)c12 [Example 770, 5-(7-(5-ethyl-1H-benzo[f]indazol-4-yl)-8-fluoro-2-(((2R,7aS)-2-fluorohexahydro-1H-pyrrolizin-7a-yl)methoxy)pyrido[4,3-d]pyrimidin-4-yl)-N,N-dimethyl-5,6,7,8-tetrahydro-4H-pyrazolo[1,5-a][1,4]diazepine-2-carboxamide] | -1 | 12 | 10 | inhibition at 0.1 µM [7]: -1% |
| 7 | – | – | 10 | 8 | – | 3 | 18 | – | 2680 | – | – | 8 | 3 | 2 | 4 | < 2 | Oc1cc(-c2ncc3c(N4CCCC5(CCO5)C4)nc(OC[C@@]45CCCN4C[C@H](F)C5)nc3c2F)c2c(Cl)c(F)ccc2c1 (stereo partly drawn) [Example 773, 5-chloro-6-fluoro-4-(8-fluoro-2-(((2R,7aS)-2-fluorotetrahydro-1H-pyrrolizin-7a(5H)-yl)methoxy)-4-(1-oxa-6-azaspiro[3.5]nonan-6-yl)pyrido[4,3-d]pyrimidin-7-yl)naphthalen-2-ol] | 96 | 99 | 90 | inhibition at 0.01 µM (KRas^G12C; [9]): 95%; inhibition at 0.01 µM (KRas^G12A; [9]): 86%; inhibition at 0.01 µM (KRas^Q61H; [9]): 95%; inhibition at 0.01 µM (KRas^WT; [9]): 90%; inhibition at 0.01 µM (KRas^G12S; [9]): 92%; inhibition at 0.01 µM (KRas^G13D; [9]): 94%; inhibition at 0.1 µM [7]: 97% |
